Experimental data taken from patent publication US8415351B2 (priority 2007, dated 2013).

What was measured:
[1] = biological target: T1, HCV polymerase 1A (Δ21 NS5B, H77) (Hepatitis C virus genotype 1a, UniProt P27958); assay: biochemical; details: IC50 1a
T1 construct: 20 to 50 nM Δ21 NS5B
How it was run: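 Radiometric assay with Δ21 NS5B (H77): 20 μM CTP, 20 μM ATP, 1 μM ^3H-UTP, 5 nM template RNA, 2–4 h at room temperature. RNA precipitated with spermine, filter-captured and counted. IC50 from non-linear fit of retained cpm vs inhibitor concentration (tight-binding equation).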

[2] = biological target: T2, HCV polymerase 1B (Δ21 NS5B, BK) (Hepatitis C virus genotype 1b, UniProt P26663); assay: biochemical
T2 construct: 20 to 50 nM Δ21 NS5B
T2 sequence (P26663 2420-2989, stated change not applied): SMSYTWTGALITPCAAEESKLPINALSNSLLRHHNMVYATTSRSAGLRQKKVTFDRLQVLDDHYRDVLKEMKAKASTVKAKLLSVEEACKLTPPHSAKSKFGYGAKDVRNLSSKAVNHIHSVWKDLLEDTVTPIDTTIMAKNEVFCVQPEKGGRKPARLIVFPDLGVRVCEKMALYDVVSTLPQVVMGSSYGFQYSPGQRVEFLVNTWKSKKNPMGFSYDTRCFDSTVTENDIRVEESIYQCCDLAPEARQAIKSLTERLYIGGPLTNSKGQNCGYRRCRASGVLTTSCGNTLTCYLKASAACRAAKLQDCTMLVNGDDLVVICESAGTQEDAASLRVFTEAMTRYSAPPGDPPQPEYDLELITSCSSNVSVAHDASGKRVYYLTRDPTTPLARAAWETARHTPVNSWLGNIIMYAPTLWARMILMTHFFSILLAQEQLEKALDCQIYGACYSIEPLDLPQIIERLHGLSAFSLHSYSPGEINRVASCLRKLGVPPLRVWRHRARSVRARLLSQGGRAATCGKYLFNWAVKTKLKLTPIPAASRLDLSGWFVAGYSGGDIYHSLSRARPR
How it was run: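 Δ21 NS5B (genotype 1b, BK […]) preincubated 15 min RT with inhibitor, 2 mM MnCl2, pH 7.4, 60–125 μM GTP; started with 20 μM CTP/ATP, 1 μM 3H-UTP, 5 nM template RNA, run 2–4 h RT. Spermine-precipitated RNA filter-captured, scintillation counted; IC50 from tight-binding (Morrison) fit.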

[3] = system: genotype 1a-H77 subgenomic replicon cell line; assay: microbe, parasite or virus in culture; assay type: cell-based, HCV; details: Hepatitis C virus, read-out: EC50 1a
[4] = system: genotype 1b-Con1 subgenomic replicon cell line; assay: microbe, parasite or virus in culture; assay type: cell-based, HCV; details: Hepatitis C virus, read-out: EC50 1b

T1 sequence (P27958 2421-2990, stated change not applied): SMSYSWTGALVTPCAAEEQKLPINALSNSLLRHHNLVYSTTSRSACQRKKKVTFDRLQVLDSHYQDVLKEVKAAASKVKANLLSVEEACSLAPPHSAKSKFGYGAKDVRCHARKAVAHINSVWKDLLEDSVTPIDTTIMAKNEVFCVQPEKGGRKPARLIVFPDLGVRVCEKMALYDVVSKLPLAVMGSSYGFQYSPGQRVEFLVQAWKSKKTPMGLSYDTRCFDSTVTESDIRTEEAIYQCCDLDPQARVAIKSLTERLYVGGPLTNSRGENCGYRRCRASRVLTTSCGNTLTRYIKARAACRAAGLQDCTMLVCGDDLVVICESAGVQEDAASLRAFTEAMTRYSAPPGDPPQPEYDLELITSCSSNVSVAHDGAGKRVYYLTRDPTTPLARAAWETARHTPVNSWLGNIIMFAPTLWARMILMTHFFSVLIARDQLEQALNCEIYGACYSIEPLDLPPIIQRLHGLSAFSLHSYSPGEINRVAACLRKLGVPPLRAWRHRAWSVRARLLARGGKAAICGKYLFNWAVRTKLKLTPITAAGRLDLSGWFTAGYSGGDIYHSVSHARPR

Row | SMILES | IC50 [1] | IC50 [2] | EC50 [3] | EC50 [4]
1 | COc1c(I)cc(-n2ccc(=O)[nH]c2=O)cc1C#Cc1ccc(NS(C)(=O)=O)cc1C [IB-L2-1.15, N-(4-((5-(2,4-dioxo-3,4-dihydropyrimidin-1(2H)-yl)-3-iodo-2-methoxyphenyl)ethynyl)-3-methylphenyl)methanesulfonamide] | 100 to 1000 nM | 100 to 1000 nM | > 1000 nM | 100 to 1000 nM
2 | COc1ccc(-c2cc(N3CCC(=O)NC3=O)cc(C(C)(C)C)c2OC)cc1/C=N/NS(C)(=O)=O [IA-L0-1.5, (E)-N′-((3′-tert-butyl-5′-(2,4-dioxotetrahydropyrimidin-1(2H)-yl)-2′,4-dimethoxy-biphenyl-3-yl)methylene)methanesulfonohydrazide] | 100 to 1000 nM | 100 to 1000 nM | > 1000 nM | > 1000 nM
3 | COc1c(-c2ccc3c(c2)CCC3NNS(C)(=O)=O)cc(-n2ccc(=O)[nH]c2=O)cc1C(C)(C)C (stereo not drawn) [IB-L0-2.31, N′-(5-(3-tert-butyl-5-(2,4-dioxo-3,4-dihydropyrimidin-1(2H)-yl)-2-methoxyphenyl)-2,3-dihydro-1H-inden-1-yl)methanesulfonohydrazide] | 10 to 100 nM | 10 to 100 nM | 100 to 1000 nM | 10 to 100 nM
4 | COc1c(C(=O)Nc2cc(CNS(C)(=O)=O)cs2)cc(N2CCC(=O)NC2=O)cc1C(C)(C)C [IA-L3-1.94, 3-tert-butyl-5-(2,4-dioxotetrahydropyrimidin-1(2H)-yl)-2-methoxy-N-(4-(methylsulfonamidomethyl)thiophen-2-yl)benzamide] | 100 to 1000 nM | 100 to 1000 nM | > 1000 nM | 100 to 1000 nM
5 | CCc1cc(N2CCC(=O)NC2=O)cc(C(=O)Nc2ccc(NS(C)(=O)=O)cc2)c1OC [IA-L3-1.112, 5-(2,4-dioxotetrahydropyrimidin-1(2H)-yl)-3-ethyl-2-methoxy-N-(4-(methylsulfonamido)phenyl)benzamide] | 100 to 1000 nM | 100 to 1000 nM | > 1000 nM | 100 to 1000 nM
6 | COc1c(C#Cc2ccc(NS(C)(=O)=O)nc2)cc(N2CCC(=O)NC2=O)cc1C(C)(C)C [IA-L2-1.26, N-(5-((3-tert-butyl-5-(2,4-dioxotetrahydropyrimidin-1(2H)-yl)-2-methoxyphenyl)ethynyl)-pyridin-2-yl)methanesulfonamide 2,2,2-trifluoroacetate] | 10 to 100 nM | 10 to 100 nM | 10 to 100 nM | 10 to 100 nM
7 | Cc1cc(NS(C)(=O)=O)ccc1C#Cc1cc(N2CCC(=O)NC2=O)cc(C(C)(C)C)c1 [IA-L2-1.2, N-(4-((3-tert-butyl-5-(2,4-dioxotetrahydropyrimidin-1(2H)-yl)phenyl)ethynyl)-3-methyl-phenyl)methanesulfonamide] | < 10 nM | < 10 nM | 10 to 100 nM | 10 to 100 nM
8 | CCCC(=O)OCN(c1ccc(NC(=O)c2cc(N3CCC(=O)NC3=O)cc(C(C)(C)C)c2OC)cc1)S(C)(=O)=O [IA-L3-1.123, (N-(4-(3-tert-butyl-5-(2,4-dioxotetrahydropyrimidin-1(2H)-yl)-2-methoxybenzamido)phenyl)methylsulfonamido)methyl butyrate] | > 1000 nM | > 1000 nM | 100 to 1000 nM | 10 to 100 nM
9 | COC(=O)NN=C1CCc2cc(-c3cc(-n4ccc(=O)[nH]c4=O)cc(C(C)(C)C)c3OC)ccc21 [IB-L0-2.24, methyl 2-(5-(3-tert-butyl-5-(2,4-dioxo-3,4-dihydropyrimidin-1(2H)-yl)-2-methoxyphenyl)-2,3-dihydro-1H-inden-1-ylidene)hydrazinecarboxylate] | 10 to 100 nM | 10 to 100 nM | 10 to 100 nM | 10 to 100 nM
10 | COc1c(-c2ccc(CCNS(C)(=O)=O)cc2)cc(-n2ccc(=O)[nH]c2=O)cc1C(C)(C)C [IB-L0-1.4, N-(2-(3′-tert-butyl-5′-(2,4-dioxo-3,4-dihydropyrimidin-1(2H)-yl)-2′-methoxybiphenyl-4-yl)ethyl)methanesulfonamide] | 10 to 100 nM | 10 to 100 nM | 100 to 1000 nM | 10 to 100 nM
11 | COc1c(C#Cc2ccc(NS(C)(=O)=O)c(F)c2Cl)cc(N2CCC(=O)NC2=O)cc1C(C)(C)C [IA-L2-1.21, N-(4-((3-tert-butyl-5-(2,4-dioxotetrahydropyrimidin-1(2H)-yl)-2-methoxyphenyl)ethynyl)-3-chloro-2-fluorophenyl)methanesulfonamide] | < 10 nM | 10 to 100 nM | 10 to 100 nM | < 10 nM
12 | COc1c(-c2ccc3c(c2)CCC3(C)CNS(C)(=O)=O)cc(-n2ccc(=O)[nH]c2=O)cc1C(C)(C)C (stereo not drawn) [IB-L0-2.25, N-((5-(3-tert-butyl-5-(2,4-dioxo-3,4-dihydropyrimidin-1(2H)-yl)-2-methoxyphenyl)-1-methyl-2,3-dihydro-1H-inden-1-yl)methyl)methanesulfonamide] | 10 to 100 nM | 10 to 100 nM | 100 to 1000 nM | 10 to 100 nM
